From US9988341B2, “Bacterial topoisomerase inhibitors and use thereof” (THE FLORIDA INTERNATIONAL UNIVERSITY BOARD OF TRUSTEES, priority 2016, dated 2018) come the findings set out here.

Converted amounts (≈) assume the structure as drawn.

One data set addresses MtbTopI (Mycobacterium tuberculosis, UniProt P9WG49). Put plainly: Anisotropy assay of DNA binding by MtbTopI. The conditions noted are these: compounds at their IC50 concentrations.
The subject of a further data set is Mtb::lux. It is filed as cell-based, M. tuberculosis. Conditions: at higher concentrations; data not shown.
For another data set, the system named is HEK. Put plainly: HEK toxicity.
For data set [1], the system named is M. smegmatis mc2 155/pTA-noI. Put plainly: microbe, parasite or virus in culture. The conditions noted are these: Mycolicibacterium smegmatis, MC2155, read-out: MIC, M. smegmatis mc2 155/pTA-noI. In kind it is cell-based.
Data set [2] concerns the target M. tuberculosis topoisomerase I (Mycobacterium tuberculosis, UniProt P9WG49). Description: biochemical. The conditions noted are these: Table 3; read-out: MtbTopI IC50.
The subject of another data set is M. smegmatis mc2 155. Put plainly: M. smegmatis growth inhibition (MIC). It is filed as cell-based. The conditions noted are these: Mycolicibacterium smegmatis, MC2155.
A short description of data set [3]: Resazurin-based cytotoxicity assay. Conditions: mouse, J774 macrophages, 50% loss of viability in J774 macrophage cell line after 24 hr exposure. As for the experimental part:
(§1) J774 macrophages were cultured in Dulbeco's minimal essential medium (DMEM) supplemented with 10% heat inactivated fetal bovine serum. One day prior to performing the assay 2.5×10^4 cells were seeded on black 384 well. Compounds and controls (0.4% DMSO and 2% Triton X final concentrations) were added 6 hr after seeding. Survival was determined after 24 hr by resazurin reduction measurement. Addition of 0.02 mg/mL resazurin was followed by 4 hours incubation at 37° C. and subsequent fluorescence reading (530 nm/590 nm) using a Synergy H4 (BioTek) plate reader. Data are presented as a percent viability compared to the vehicle (0.4% DMSO) control with 100% being noncytotoxic.
(In general: Alamar Blue is a resazurin reagent that responds to reducing activity.)

A further data set deals with J774 macrophages. Put plainly: Resazurin-based cytotoxicity assay. Conditions: 50% loss of viability in J774 macrophage cell line after 24 hr exposure. As for the experimental part: as §1
For a further data set, the system named is Mtb-lux. In kind it is cell-based, M. tuberculosis.
In a further data set the test system is Mtb CDC1551 Mtb::lux. Description: microbe, parasite or virus in culture. It is filed as cell-based, M. tuberculosis. Conditions: Mycobacterium tuberculosis, 120 h; 50% reduction in luminescence signal compared to controls; 5 days.
The target in the next data set is E. coli topoisomerase I (Escherichia coli, UniProt P06612). Description: Bacterial topoisomerase I relaxation activity inhibition assay (EcTopI). In kind it is biochemical. As for the experimental part:
The relaxation activity of bacterial topoisomerase I was assayed in a buffer containing 10 mM Tris-HCl, pH 8.0, 50 mM NaCl, 0.1 mg/mL gelatin, and 0.5 mM MgCl2. One microliter of the compounds dissolved in DMF (dimethylformamide) or solvent alone was mixed with 10 μl of the reaction buffer containing 10 ng of enzyme before the addition of 9 μl of reaction buffer containing 160 ng of supercoiled pBAD/Thio plasmid DNA purified by cesium chloride gradient as substrate. Following incubation at 37° C. for 30 min, the reactions were terminated by the addition of 4 μl of 50% glycerol, 50 mM EDTA, and 0.5% (v/v) bromophenol blue, and analyzed by agarose gel electrophoresis. The gels were stained in ethidium bromide and photographed under UV light.

The subject of the next data set is M. smegmatis. Put plainly: M. smegmatis loss of viability (viable colony counts). It is filed as cell-based.
In another data set the target is T1, E. coli DNA gyrase (Escherichia coli, UniProt P0AES4+P0AES6).
T1 construct: purchased New England BioLabs
Description: DNA gyrase supercoiling inhibition assay. In kind it is biochemical. The procedure:
DNA gyrase (obtained from New England BioLabs) supercoiling assays were carried out by mixing the compounds with 2 U of the enzyme in reaction buffer supplied by the manufacturer, followed by the addition of 300 ng of relaxed covalently closed circular DNA was for a final reaction volume of 20 μL. The samples were incubated at 37° C. for 30 minutes before being terminated by the addition of a buffer containing 5% SDS, 0.25% bromophenol blue, and 25% glycerol. The reactions were then analyzed by agarose gel electrophoresis.

For the next data set, the target named is T2, Human topoisomerase I (Homo sapiens, UniProt P11387).
T2 construct: purchased TopoGen
T2 sequence (P11387 1-765): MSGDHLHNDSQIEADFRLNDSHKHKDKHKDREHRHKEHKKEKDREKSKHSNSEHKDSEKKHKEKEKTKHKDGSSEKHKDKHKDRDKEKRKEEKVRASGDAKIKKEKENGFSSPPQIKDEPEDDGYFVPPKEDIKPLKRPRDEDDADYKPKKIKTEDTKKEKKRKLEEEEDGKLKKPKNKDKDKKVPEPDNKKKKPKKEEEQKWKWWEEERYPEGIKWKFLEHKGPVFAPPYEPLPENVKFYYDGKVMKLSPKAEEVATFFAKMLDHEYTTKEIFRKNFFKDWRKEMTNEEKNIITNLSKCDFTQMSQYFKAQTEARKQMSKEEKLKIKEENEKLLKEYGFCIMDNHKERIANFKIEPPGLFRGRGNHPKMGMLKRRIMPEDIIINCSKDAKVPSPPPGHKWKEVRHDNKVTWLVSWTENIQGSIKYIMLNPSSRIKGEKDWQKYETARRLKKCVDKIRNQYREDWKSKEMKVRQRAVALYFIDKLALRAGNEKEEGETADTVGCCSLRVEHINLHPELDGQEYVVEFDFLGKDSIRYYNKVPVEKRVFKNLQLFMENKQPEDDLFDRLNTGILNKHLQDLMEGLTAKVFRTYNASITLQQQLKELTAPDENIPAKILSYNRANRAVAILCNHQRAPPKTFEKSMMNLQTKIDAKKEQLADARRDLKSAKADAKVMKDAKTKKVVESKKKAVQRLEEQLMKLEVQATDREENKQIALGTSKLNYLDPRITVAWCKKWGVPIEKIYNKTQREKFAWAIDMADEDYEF
Put plainly: Human topoisomerase I relaxation inhibition assay. It is filed as biochemical. The procedure:
Human topoisomerase I (obtained from TopoGen) relaxation assays were carried out with 0.5 U of enzyme in reaction buffer supplied by the manufacturer. The enzyme was mixed with the indicated concentration of compound dissolved before 160 ng of supercoiled pBAD/Thio plasmid DNA was added in the same buffer, for a final volume of 20 μL. Following incubation at 37° C. for 30 minutes, the reactions were terminated with a buffer containing 5% SDS, 0.25% bromophenol blue, and 25% glycerol, and analyzed by agarose gel electrophoresis.

The next data set has as its target T3, Human Topoisomerase IIα (Homo sapiens, UniProt P11388).
T3 construct: purchased TopoGen
Description: Human topoisomerase IIα decatenation inhibition assay. It is filed as biochemical. The procedure:
Human Topoisomerase IIα (obtained from TopoGen) assays were carried out by adding the compounds to 180 ng of kinetoplast DNA (kDNA) in the buffer supplied by the manufacturer before the addition of 2 U of the enzyme. The samples were incubated for 15 minutes at 37° C. before the addition of 4 μl of stop buffer containing 5% sarkosyl, 0.0025% bromophenol blue, and 25% glycerol. The reactions were then analyzed by electrophoresis in 1% agarose gels containing 0.5 μg ml^−1 ethidium bromide before being photographed under UV light.

M. tuberculosis topoisomerase I, sequence (P9WG49 whole entry): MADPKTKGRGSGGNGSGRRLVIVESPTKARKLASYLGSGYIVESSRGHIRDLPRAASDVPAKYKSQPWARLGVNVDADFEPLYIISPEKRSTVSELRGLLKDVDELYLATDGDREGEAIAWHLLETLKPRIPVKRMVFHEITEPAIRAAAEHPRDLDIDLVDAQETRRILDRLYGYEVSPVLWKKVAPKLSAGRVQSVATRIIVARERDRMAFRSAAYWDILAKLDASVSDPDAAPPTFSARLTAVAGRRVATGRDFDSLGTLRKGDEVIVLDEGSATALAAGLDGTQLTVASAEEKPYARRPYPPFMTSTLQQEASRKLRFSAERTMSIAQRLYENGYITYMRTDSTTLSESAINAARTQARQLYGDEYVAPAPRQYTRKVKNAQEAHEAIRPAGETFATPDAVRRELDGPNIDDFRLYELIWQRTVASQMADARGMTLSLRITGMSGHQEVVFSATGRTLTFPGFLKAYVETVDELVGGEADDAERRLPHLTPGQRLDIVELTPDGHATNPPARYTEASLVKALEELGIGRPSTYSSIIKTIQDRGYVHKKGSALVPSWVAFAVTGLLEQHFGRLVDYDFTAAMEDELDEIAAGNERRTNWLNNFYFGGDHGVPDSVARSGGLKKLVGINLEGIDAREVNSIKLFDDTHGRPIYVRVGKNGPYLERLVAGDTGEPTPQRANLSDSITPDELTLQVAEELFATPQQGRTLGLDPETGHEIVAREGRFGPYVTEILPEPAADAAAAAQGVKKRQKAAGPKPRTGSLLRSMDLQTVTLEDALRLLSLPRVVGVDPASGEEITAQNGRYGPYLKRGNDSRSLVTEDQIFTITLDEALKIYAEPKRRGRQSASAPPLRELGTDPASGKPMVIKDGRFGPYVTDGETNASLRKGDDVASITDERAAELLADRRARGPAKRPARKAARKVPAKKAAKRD
E. coli topoisomerase I, sequence (P06612 whole entry): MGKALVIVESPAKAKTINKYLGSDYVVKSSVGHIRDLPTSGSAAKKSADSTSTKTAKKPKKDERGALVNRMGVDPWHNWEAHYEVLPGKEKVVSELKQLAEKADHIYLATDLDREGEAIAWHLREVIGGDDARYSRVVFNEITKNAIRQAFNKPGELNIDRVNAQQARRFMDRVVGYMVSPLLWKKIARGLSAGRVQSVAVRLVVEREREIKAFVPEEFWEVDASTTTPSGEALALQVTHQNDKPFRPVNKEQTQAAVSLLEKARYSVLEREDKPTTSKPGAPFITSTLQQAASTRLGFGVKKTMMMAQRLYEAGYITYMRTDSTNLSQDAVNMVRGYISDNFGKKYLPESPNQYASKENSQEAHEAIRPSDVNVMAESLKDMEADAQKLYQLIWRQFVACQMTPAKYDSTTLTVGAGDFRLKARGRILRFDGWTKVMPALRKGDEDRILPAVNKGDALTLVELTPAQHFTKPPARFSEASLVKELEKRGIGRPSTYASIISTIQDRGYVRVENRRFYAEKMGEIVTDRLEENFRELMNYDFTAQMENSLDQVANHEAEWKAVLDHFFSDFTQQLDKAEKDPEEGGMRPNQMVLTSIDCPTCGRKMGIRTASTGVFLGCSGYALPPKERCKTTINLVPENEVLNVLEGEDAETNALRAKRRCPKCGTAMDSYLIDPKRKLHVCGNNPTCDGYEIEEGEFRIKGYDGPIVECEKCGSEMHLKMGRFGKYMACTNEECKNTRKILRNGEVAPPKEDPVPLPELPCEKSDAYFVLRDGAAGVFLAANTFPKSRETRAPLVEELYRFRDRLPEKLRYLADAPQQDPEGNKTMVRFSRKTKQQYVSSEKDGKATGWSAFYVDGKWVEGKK
T1 sequence (P0AES4 whole entry, one chain of several): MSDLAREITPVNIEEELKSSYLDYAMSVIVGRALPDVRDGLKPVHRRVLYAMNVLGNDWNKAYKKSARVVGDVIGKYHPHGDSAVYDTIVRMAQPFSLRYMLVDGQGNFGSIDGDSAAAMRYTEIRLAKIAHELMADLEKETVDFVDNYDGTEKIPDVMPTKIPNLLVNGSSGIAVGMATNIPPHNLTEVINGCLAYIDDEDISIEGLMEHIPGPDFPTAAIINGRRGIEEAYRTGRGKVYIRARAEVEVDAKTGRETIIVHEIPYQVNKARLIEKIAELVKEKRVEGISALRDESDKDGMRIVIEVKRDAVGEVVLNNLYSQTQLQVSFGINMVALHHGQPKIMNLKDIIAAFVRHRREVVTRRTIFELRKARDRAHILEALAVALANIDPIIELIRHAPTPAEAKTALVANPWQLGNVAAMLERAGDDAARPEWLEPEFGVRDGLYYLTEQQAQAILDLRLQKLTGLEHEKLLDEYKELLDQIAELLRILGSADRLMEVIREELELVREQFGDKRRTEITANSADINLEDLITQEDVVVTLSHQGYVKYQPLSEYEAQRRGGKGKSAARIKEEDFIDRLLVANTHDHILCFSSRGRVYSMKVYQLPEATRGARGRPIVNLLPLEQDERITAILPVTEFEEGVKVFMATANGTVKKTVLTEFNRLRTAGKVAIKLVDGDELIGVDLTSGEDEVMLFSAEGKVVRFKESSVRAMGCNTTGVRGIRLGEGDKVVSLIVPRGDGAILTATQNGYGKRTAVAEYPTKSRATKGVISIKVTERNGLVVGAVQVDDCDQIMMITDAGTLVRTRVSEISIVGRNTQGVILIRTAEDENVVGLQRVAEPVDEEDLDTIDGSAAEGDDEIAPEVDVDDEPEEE
T3 sequence (P11388 whole entry): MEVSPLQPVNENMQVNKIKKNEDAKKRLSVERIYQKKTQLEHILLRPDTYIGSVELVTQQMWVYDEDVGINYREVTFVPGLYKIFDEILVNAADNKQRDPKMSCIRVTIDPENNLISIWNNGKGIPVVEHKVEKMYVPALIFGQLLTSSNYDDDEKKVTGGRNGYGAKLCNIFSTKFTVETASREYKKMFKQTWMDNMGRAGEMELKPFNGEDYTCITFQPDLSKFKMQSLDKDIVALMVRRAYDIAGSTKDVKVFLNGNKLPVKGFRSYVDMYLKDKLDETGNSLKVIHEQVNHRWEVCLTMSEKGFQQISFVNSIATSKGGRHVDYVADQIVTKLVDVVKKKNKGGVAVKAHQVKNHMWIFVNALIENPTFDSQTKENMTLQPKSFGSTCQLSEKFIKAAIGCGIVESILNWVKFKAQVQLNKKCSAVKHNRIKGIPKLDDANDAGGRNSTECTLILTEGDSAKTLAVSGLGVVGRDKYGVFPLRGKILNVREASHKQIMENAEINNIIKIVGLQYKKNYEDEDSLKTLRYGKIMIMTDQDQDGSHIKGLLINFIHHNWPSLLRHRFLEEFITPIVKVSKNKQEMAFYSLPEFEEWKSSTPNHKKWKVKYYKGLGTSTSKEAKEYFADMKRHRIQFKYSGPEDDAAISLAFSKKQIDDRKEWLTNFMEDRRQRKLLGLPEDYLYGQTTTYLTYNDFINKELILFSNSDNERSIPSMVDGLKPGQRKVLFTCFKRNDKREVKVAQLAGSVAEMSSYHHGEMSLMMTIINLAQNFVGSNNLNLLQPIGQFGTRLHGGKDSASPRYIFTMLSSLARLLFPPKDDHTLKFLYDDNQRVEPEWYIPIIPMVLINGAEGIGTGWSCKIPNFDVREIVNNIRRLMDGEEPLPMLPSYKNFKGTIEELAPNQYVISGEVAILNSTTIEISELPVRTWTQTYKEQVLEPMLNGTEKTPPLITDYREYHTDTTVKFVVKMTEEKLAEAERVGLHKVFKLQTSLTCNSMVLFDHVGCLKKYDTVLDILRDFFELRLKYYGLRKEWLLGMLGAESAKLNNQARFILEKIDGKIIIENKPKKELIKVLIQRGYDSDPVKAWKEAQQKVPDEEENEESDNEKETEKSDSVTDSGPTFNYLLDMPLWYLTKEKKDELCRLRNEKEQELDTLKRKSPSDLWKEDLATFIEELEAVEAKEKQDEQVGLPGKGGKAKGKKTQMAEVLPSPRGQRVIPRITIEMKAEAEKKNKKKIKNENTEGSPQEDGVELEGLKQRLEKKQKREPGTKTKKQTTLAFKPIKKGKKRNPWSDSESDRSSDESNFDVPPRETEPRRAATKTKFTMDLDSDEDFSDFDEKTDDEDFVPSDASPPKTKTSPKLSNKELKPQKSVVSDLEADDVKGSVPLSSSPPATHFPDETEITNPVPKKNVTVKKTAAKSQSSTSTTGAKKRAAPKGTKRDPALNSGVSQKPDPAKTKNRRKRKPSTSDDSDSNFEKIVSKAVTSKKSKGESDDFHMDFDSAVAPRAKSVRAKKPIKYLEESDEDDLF

Take `CCCC[C@@H](CN[C@H](CN)CCCCNC)NCc1cccc2ccccc12` [Compound 2471-12, (S)—N6-methyl-N2-((S)-2-(naphthalen-1-ylmethylamino)hexyl)hexane-1,2,6-triamine]: the “Effect on binding of MtbTopI to oligonucleotide substrate” value at MtbTopI is given as “did not inhibit”. Besides, the “Reduction of Mtb CFU” value in the data set with Mtb::lux came out at 1 log. In the data set with HEK, the “Percent HEK toxicity 6.25 μg/mL” value turned out to be 15.2%. In addition, the MIC was found to be 12.5 µM (≈ 4.81 µg/mL) in [1] and 25 µM (≈ 9.62 µg/mL) in the data set on M. smegmatis mc2 155. Further, the IC50 was determined as 7.5 µM in data set [2], 6.8 µM in the data set with Mtb CDC1551 Mtb::lux and 7.5 µM against E. coli topoisomerase I. For the same compound, the CC50 at 24 h in data set [3] was approximately 100 µM. For the same compound, the cytotoxic concentration (CC50) in the data set on J774 macrophages worked out at 104 µM. Also, the “Percent Mtb-lux killing 5 μg/mL” value with Mtb-lux was 70.9%. Besides, the “Time course of loss of viable colony counts, control cloning vector” value in the data set with M. smegmatis is given as “rapid killing”.
As for `CCCC[C@@H](CN[C@H](CN)CCN)NCc1cccc2ccccc12` [Compound 2471-24, (S)—N2-((S)-2-(naphthalen-1-ylmethylamino)hexyl)butane-1,2,4-triamine], the “Reduction of Mtb CFU” value in the data set with Mtb::lux was determined as 1 log. In addition, the IC50 against E. coli DNA gyrase is more than 160 µM; in data set [2], 7.5 µM; in the data set with Mtb CDC1551 Mtb::lux, 8.4 µM; against E. coli topoisomerase I it was 10 µM; on Human topoisomerase I it was more than 160 µM. Besides, the “Percent HEK toxicity 6.25 μg/mL” value in the data set on HEK is 5.4%. In addition, the MIC in data set [1] stood at 25 µM (≈ 8.56 µg/mL); with M. smegmatis mc2 155, 50 µM (≈ 17.1 µg/mL). Moreover, the CC50 at 24 h in data set [3] was approximately 100 µM. In addition, the CC50 in the data set with J774 macrophages worked out at 101 µM. Also, the “Percent Mtb-lux killing 5 μg/mL” value in the data set on Mtb-lux came to 64.3%.
Turning to `CCCC[C@@H](CN[C@@H](CN)CCCCNC)NCc1cccc2ccccc12` [Compound 2471-36], the half-maximal inhibitory concentration (IC50) on E. coli DNA gyrase was more than 160 µM; against Human Topoisomerase IIα, more than 160 µM; in data set [2], 15 µM; in the data set on Mtb CDC1551 Mtb::lux it was 3.3 µM; on E. coli topoisomerase I, 20 µM; on Human topoisomerase I it was more than 160 µM. Also, in the data set with HEK, the “Percent HEK toxicity 6.25 μg/mL” value was 15.3%. Moreover, in the data set on M. smegmatis mc2 155, the MIC was 25 µM (≈ 9.62 µg/mL). Besides, the CC50 at 24 h in data set [3] is approximately 40 µM. Moreover, the CC50 in the data set on J774 macrophages came out at 36.5 µM. The “Percent Mtb-lux killing 5 μg/mL” value in the data set with Mtb-lux amounted to 99.2%.

In general, IC50 refers to the concentration needed to halve the response being measured. The term CC50 denotes the concentration at which the toxic effect on the cells reaches its halfway point.
